Experimental data: US20070148051A1, “Chemical volatilization device” (Dainihon Jochugiku Co., Ltd., priority 2005, published 2007)

Key:
[1] = test system: harmful insects such as mosquitoes and midges; test: Experiment Example 2: device suspended in a doghouse, insecticidal effects; type: in vivo; conditions: 70 mg Compound A retained, 1400 rpm, 8 hours per day for about 30 days
Description: Two-dimensional mesh-like chemical-retaining fibers 2 were woven using twisted polyester fibers, and supportive connecting chemical-retaining fibers 3 (upper and lower widths: 2.5 mm), comprised of nylon fibers, were arranged in a state in which a columnar structure and a diagonal structure were overlapped based on the constitution of the aforementioned (8) shown in FIG. 8 to produce a disc-like chemical retainer 1 having an overall thickness in the vertical direction of 4.2 mm and an outer diameter of 4.5 cm.
70 mg of Compound A (2,3,5,6-tetrafluorobenzyl-2,2-dimethyl-3-(2,2-dichlorovinyl)cyclopropane carboxylate) was retained instead of the chemical used in Experiment Example 1 and activated for 240 hours.
This chemical retainer 1 was housed in the protective case 4 of Experiment Example 1, activated for 8 hours per day by suspending in a doghouse at a rotating speed of 1400 rpm, and said activation was continued for about 30 days.

[2] = test system: mosquitoes; test: Experiment Example 1: chemical volatilization device activated, mosquito control; type: in vivo; conditions: 40 mg Compound C dissolved in kerosene retained in chemical retainer, 1200 rpm, over about 120 hours
Description: Two-dimensional mesh-like chemical-retaining fibers 2 were woven on both the upper and lower sides using twisted polyester fibers, and supportive connecting chemical-retaining fibers 3 (upper and lower widths: 3 mm), comprised of polyester fibers, were arranged between both sides based on a diagonal structure according to the constitution of the aforementioned (6) as shown in FIG. 6 to produce a disc-like chemical retainer 1 having an overall thickness in the vertical direction of 4.0 mm and an outer diameter of 4.0 cm.
The chemical retainer 1 was housed in a protective case 4 made of polycarbonate (outer diameter: 5.0 cm, thickness: 8 mm), and the protective case 4 employed a roughly circular cross-section for circumferential retaining frames 41.
In this type of chemical retainer 1, a chemical solution, in which 40 mg of Compound C (4-methoxymethyl-2,3,5,6-tetrafluorobenzyl-2,2-dimethyl-3-(1-propenyl)cyclopropane carboxylate) were dissolved in kerosene, was retained in said chemical retainer 1, and after housing in the protective case 4, was activated for 120 hours at a rotating speed of 1200 rpm.

Structure (SMILES)	insecticidal effects against harmful insects during continuous activation [1]	control of mosquitoes during activation [2]
CC1(C)C(C=C(Cl)Cl)C1C(=O)OCc1c(F)c(F)cc(F)c1F (centres unmarked) [Compound A, 2,3,5,6-tetrafluorobenzyl-2,2-dimethyl-3-(2,2-dichlorovinyl) cyclopropane carboxylate]	stable insecticidal effects	–
CC=CC1C(C(=O)OCc2c(F)c(F)c(COC)c(F)c2F)C1(C)C (centres unmarked) [Compound C, 4-methoxymethyl-2,3,5,6-tetrafluorobenzyl-2,2-dimethyl-3-(1-propenyl)cyclopropane carboxylate]	–	effectively controlled
